The subject of the experiment is HSV-1. The experiment is described as follows: HSV-1 replication in Vero 76 cells, DNA hybridization capture assay. The class given is cell-based, herpes simplex virus 1. The following applies: Human alphaherpesvirus 1; HSV-1 infected Vero 76 cells, MOI=0.001, 40–48 hours incubation, viral DNA detected by hybridization/chemiluminescence. On the procedure: Vero 76 cells were maintained in MEM with Earle's salts, L-glutamine, 8% FBS (Hyclone, A-1111-L) and 100 units/mL Penicillin-100 μg/mL Streptomycin. For assay conditions, FBS was reduced to 2%. Cells are seeded into 96-well tissue culture plates at a density of 5×10^4 cells/well after being incubated for 45 min at 37° C. in the presence of HSV-1 or HSV-2 (MOI=0.001). Test compounds are added to the wells and the plates are incubated at 37° C. for 40–48 hours. Cell lysates are prepared as follows: media was removed and replaced with 150 μL/well 0.2 N NaOH with 1% Igepal CA 630 or NP-40. Plates were incubated up to 14 days at room temperature in a humidified chamber to prevent evaporation.
For the detection probe, a gel-purified, digoxigenin-labeled, 710-bp PCR fragment of the HSV UL-15 sequence was utilized. PCR conditions included 0.5 μM primers, 180 μM dTTP, 20 μM dUTP-digoxigenin (Boehringer Mannheim 1558706), 200 μM each of dATP, dCTP, and dGTP, 1×PCR Buffer II (Perkin Elmer), 2.5 mM MgCl2, 0.025 units/μL of AmpliTaq Gold polymerase (Perkin Elmer), and 5 ng of gel-purified HSV DNA per 100 μL Extension conditions were 10 min at 95° C., followed by 30 cycles of 95° C. for 1 min, 55° C. for 30 sec, and 72° C. for 2 min. The amplification was completed with a 10-min incubation at 72° C. Primers were selected to amplify a 728 bp probe spanning a section of the HSV1 UL15 open reading frame (nucleotides 249–977). Single-stranded transcripts were purified with Promega M13 Wizard kits. The final product was mixed 1:1 with a mixture of 6 M GuSCN, 100 mM EDTA and 200 μg/mL herring sperm DNA and stored at 4° C.
The capture DNA plasmid (HSV UL13 region in pUC) was linearized by cutting with Xba I, denatured for 15 min at 95° C. and diluted immediately into Reacti-Bind DNA Coating Solution (Pierce, 17250, diluted 1:1 with TE buffer, pH 8) at 1 ng/μL 75 μL/well were added to Corning (#3922 or 9690) white 96-well plates and incubated at room temperature for at least 4 hrs before washing twice with 300 μL/well 0.2×SSC/0.05% Tween-20 (SSC/T buffer). The plates were then incubated overnight at room temperature with 150 μL/well 0.2 N NaOH, 1% IGEPAL and 10 μg/mL herring sperm DNA.
Twenty-seven (27) μL of cell lysate was combined with […] of hybridization solution (final concentration: 3M GuSCN, 50 mM EDTA, 100 μg/ml salmon sperm DNA, 5× Denhardt's solution, 0.25×APE, and 5 ng of the digoxigenin-labeled detection probe). APE is 1.5 M NH4-acetate, 0.15 M ammonium phosphate monobasic, and 5 mM EDTA adjusted to pH 6.0. Mineral oil (50 μL) was added to prevent evaporation. The hybridization plates were incubated at 95° C. for 10 minutes to denature the DNA, then incubated at 42° C. overnight. The wells were washed 6× with 300 μL/well SSC/T buffer then incubated with […] anti-digoxigenin-HRP-conjugated antibody (Boehringer Mannheim 1207733, 1:5000 in TE) for 30 min at room temperature. The wells were washed 6× with 300 μL/well with PBS/0.05% Tween-20 before 75 μL/well SuperSignal LBA substrate (Pierce) was added. The plates were incubated at room temperature for 30 minutes and chemiluminescence was measured in a Wallac Victor reader.

In general, IC50 refers to the concentration at which inhibition is half-maximal. Low readings indicate greater potency, high ones weaker potency.

Turning to `COc1cccc(-c2nc3c(Cl)cccn3c2-c2ccnc(Nc3ccccc3)n2)c1` [Example 1, 4-[8-Chloro-2-(3-methoxyphenyl)imidazo[1,2-α]pyridin-3-yl]-N-phenylpyrimidin-2-amine], the 50% inhibitory concentration (IC50) is 1460 nM. This counts as single-digit micromolar.

As for `O=[N+]([O-])c1cccc(-c2nc3c(Cl)cccn3c2-c2ccnc(Nc3ccc(F)cc3)n2)c1` [Example 5, 4-[8-Chloro-2-(3-nitrophenyl)imidazo[1,2-α]pyridin-3-yl]-N-(4-fluorophenyl)pyrimidin-2-amine], 2230 nM corresponded to half-maximal inhibition (IC50).

With `COc1cccc(-c2nc3c(NC4CCCC4)cccn3c2-c2ccnc(NC3CCCC3)n2)c1` [Example 2, N-Cyclopentyl-3-[2-(cyclopentylamino)-4-pyrimidinyl]-2-(3-methoxyphenyl)imidazo[1,2-α]pyridin-8-amine], half-maximal inhibition (IC50) was put at 350 nM. As to `Cc1ccc(-c2nc3c(NC4CCCC4)cccn3c2-c2ccnc(Nc3ccccc3)n2)cc1` [Example 4, 3-(2-Anilino-4-pyrimidinyl)-N-cyclopentyl-2-(4-methylphenyl)imidazo[1,2-α]pyridin-8-amine], the midpoint of inhibition, the IC50, lay at 3540 nM. This IC50 is about 10-fold higher than that of the molecule before.

`Cc1ccc(-c2nc3c(Cl)cccn3c2-c2ccnc(Nc3ccccc3)n2)cc1` [Example 3, 4-[8-Chloro-2-(4-methylphenyl)imidazo[1,2-α]pyridin-3-yl]-N-phenylpyrimidin-2-amine] showed an IC50 of 3520 nM. This IC50 and that of the molecule before are within 1.5-fold of each other.

(Values after patent publication US7244740B2, “Imidazo-pyridine derivatives for use in the treatment of herpes viral infection” (SmithKline Beecham Corporation, priority 2001, dated 2007).)
